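These data come from cells grown in 96-well plates and exposed to compound for 48 hours at five concentrations. TGI denotes the concentration required for complete inhibition of growth.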

Some test systems named below: ACHN renal; SF-268 CNS; UACC-257 melanoma; MCF7 breast; SR leukemia; SF-539 CNS; T-47D breast; NCI-H460 lung; MDA-MB-231 breast; OVCAR-4 ovarian; OVCAR-8 ovarian; HCT-116 colon; A549 NSCLC; U251 CNS; K-562 leukemia; HL-60(TB) leukemia; NCI/ADR-RES ovarian; SK-MEL-5 melanoma; M14 melanoma.
What all share (assay): NCI-60 cell line screen, 48 h

In the case of `COc1ccc(C[C@H]2COC(=O)[C@@H]2Cc2ccc(Br)cc2)cc1OC`, the TGI is greater than 100 µM in the experiment on ACHN renal; greater than 31.6 µM in the experiment on SF-268 CNS; 74.6 µM in the experiment with UACC-257 melanoma; greater than 65.4 µM in the experiment on MCF7 breast; greater than 94 µM with SR leukemia; greater than 100 µM in the experiment with SF-539 CNS. Also, the TGI is greater than 100 µM in the experiment on T-47D breast; greater than 100 µM in the experiment with NCI-H460 lung; 77.2 µM in the experiment with MDA-MB-231 breast; greater than 100 µM in the experiment on OVCAR-4 ovarian; greater than 100 µM with OVCAR-8 ovarian; greater than 89.7 µM with HCT-116 colon. In addition, the TGI was greater than 100 µM in the experiment with A549 NSCLC; greater than 100 µM with U251 CNS; greater than 72 µM in the experiment on K-562 leukemia; greater than 61.6 µM with HL-60(TB) leukemia; greater than 100 µM in the experiment on NCI/ADR-RES ovarian; 17.2 µM in the experiment with SK-MEL-5 melanoma. In the experiment on M14 melanoma, this compound came in with a TGI greater than 89.5 µM.

Regarding `C=CC(C)(C)NC(C(=O)N1CCC[C@H]1c1nc(-c2nc(C(=O)OCC=C(C)C)c(C)o2)c(C)o1)C(C)C` (some centres undefined), the TGI in the experiment on ACHN renal was greater than 68.1 µM; in the experiment with SF-268 CNS, greater than 100 µM; with UACC-257 melanoma it was greater than 100 µM; in the experiment with MCF7 breast, greater than 82.8 µM; with SR leukemia, greater than 100 µM; in the experiment on SF-539 CNS, greater than 68.7 µM. Besides, the TGI in the experiment with T-47D breast, in the experiment on NCI-H460 lung, in the experiment on MDA-MB-231 breast, in the experiment on OVCAR-4 ovarian, in the experiment with OVCAR-8 ovarian and in the experiment with HCT-116 colon was greater than 100 µM throughout. The TGI is greater than 100 µM in the experiment on A549 NSCLC; greater than 78.1 µM with U251 CNS; greater than 100 µM in the experiment with K-562 leukemia; 71.6 µM in the experiment with HL-60(TB) leukemia; greater than 100 µM in the experiment on NCI/ADR-RES ovarian; greater than 72.7 µM with SK-MEL-5 melanoma. The TGI with M14 melanoma was greater than 100 µM.

Consider `COc1ccc(COCC[C@H](C)OC2OC(CO[Si](C)(C)C(C)(C)C)C(O)C(O)C2O)cc1` (some centres undefined), for which the TGI in the experiment on ACHN renal, in the experiment with SF-268 CNS, in the experiment on UACC-257 melanoma, in the experiment with MCF7 breast, in the experiment with SR leukemia and in the experiment on SF-539 CNS was greater than 100 µM in each case. For the same compound, the TGI in the experiment on T-47D breast, with NCI-H460 lung, with MDA-MB-231 breast, with OVCAR-4 ovarian, in the experiment with OVCAR-8 ovarian and with HCT-116 colon was greater than 100 µM throughout. The TGI with A549 NSCLC, in the experiment on U251 CNS, in the experiment with K-562 leukemia, in the experiment on HL-60(TB) leukemia, in the experiment on NCI/ADR-RES ovarian and in the experiment with SK-MEL-5 melanoma was greater than 100 µM throughout. This compound also showed a TGI with M14 melanoma greater than 100 µM.

On to `CO[P@@]1(=O)O[C@@H](c2ccccc2)[C@H](O)[C@@]1(O)c1ccccc1`, for which the TGI with ACHN renal is greater than 100 µM; with SF-268 CNS, greater than 100 µM; with UACC-257 melanoma, greater than 100 µM; with MCF7 breast, greater than 100 µM; in the experiment on SR leukemia, 74.7 µM; in the experiment on SF-539 CNS, greater than 100 µM. The TGI in the experiment with T-47D breast, with NCI-H460 lung, in the experiment with MDA-MB-231 breast, in the experiment with OVCAR-4 ovarian, in the experiment on OVCAR-8 ovarian and in the experiment with HCT-116 colon was greater than 100 µM in each case. The TGI in the experiment on A549 NSCLC, in the experiment with U251 CNS, in the experiment on K-562 leukemia, with HL-60(TB) leukemia, with NCI/ADR-RES ovarian and in the experiment with SK-MEL-5 melanoma was greater than 100 µM throughout. In the experiment on M14 melanoma, this compound showed a TGI greater than 100 µM.

As to `CNC(=O)O/N=C1\N(C)CN(c2ccccc2)C12CCN(CCCC(=O)c1ccc(F)cc1)CC2`, the TGI in the experiment with ACHN renal is greater than 100 µM; in the experiment on SF-268 CNS, greater than 100 µM; in the experiment with UACC-257 melanoma it was 35.4 µM; in the experiment with MCF7 breast it was greater than 100 µM; in the experiment with SR leukemia, greater than 100 µM; in the experiment with SF-539 CNS, greater than 100 µM. In addition, the TGI in the experiment on T-47D breast, in the experiment with NCI-H460 lung, with MDA-MB-231 breast, with OVCAR-4 ovarian, in the experiment with OVCAR-8 ovarian and in the experiment on HCT-116 colon was greater than 100 µM throughout. Further, the TGI in the experiment with A549 NSCLC is greater than 100 µM; with U251 CNS, greater than 100 µM; in the experiment with K-562 leukemia it was greater than 100 µM; in the experiment on HL-60(TB) leukemia it was greater than 100 µM; in the experiment on NCI/ADR-RES ovarian it was greater than 100 µM; with SK-MEL-5 melanoma, 33 µM. Also, in the experiment with M14 melanoma, the TGI is 32.9 µM.

Consider `COc1ccc2nc3c4c(nccc4c2c1)-c1ncccc1C3=O`, for which the TGI turned out to be 0.174 µM with ACHN renal; 3.96 µM with SF-268 CNS; 0.196 µM in the experiment on UACC-257 melanoma; 0.179 µM with MCF7 breast; 0.0189 µM in the experiment with SR leukemia; 0.56 µM in the experiment with SF-539 CNS. Also, the TGI in the experiment with T-47D breast stood at 4.81 µM; with NCI-H460 lung, 0.119 µM; in the experiment with MDA-MB-231 breast, 3.94 µM; in the experiment on OVCAR-4 ovarian, 2.01 µM; in the experiment on OVCAR-8 ovarian it was 6.55 µM; in the experiment with HCT-116 colon it was 0.467 µM. Besides, the TGI in the experiment with A549 NSCLC is 0.338 µM; in the experiment with U251 CNS, 1.75 µM; in the experiment with K-562 leukemia, 0.174 µM; with HL-60(TB) leukemia it was 0.165 µM; in the experiment with NCI/ADR-RES ovarian, 7.62 µM; with SK-MEL-5 melanoma it was 0.111 µM. The compound further came in with a TGI in the experiment with M14 melanoma of 0.29 µM.

With `CC(C)N(C(C)C)S(=O)(=O)CC12CCC(C/C1=N\O)C2` (centres undefined), the TGI with ACHN renal, with SF-268 CNS, in the experiment with UACC-257 melanoma, in the experiment on MCF7 breast, with SR leukemia and with SF-539 CNS was greater than 100 µM throughout. Further, the TGI in the experiment with T-47D breast, with NCI-H460 lung, with MDA-MB-231 breast, in the experiment with OVCAR-4 ovarian, in the experiment on OVCAR-8 ovarian and in the experiment on HCT-116 colon was greater than 100 µM each time. The TGI with A549 NSCLC, in the experiment with U251 CNS, with K-562 leukemia, with HL-60(TB) leukemia, with NCI/ADR-RES ovarian and with SK-MEL-5 melanoma was greater than 100 µM throughout. The compound also came in with a TGI in the experiment with M14 melanoma greater than 100 µM.

On to `CCCCC/C=C\C=C\CCCCCCCCC(=O)OC`, for which the TGI with ACHN renal, in the experiment on SF-268 CNS, in the experiment with UACC-257 melanoma, in the experiment on MCF7 breast, with SR leukemia and in the experiment on SF-539 CNS was greater than 100 µM each time. Further, the TGI in the experiment on T-47D breast, in the experiment on NCI-H460 lung, in the experiment on MDA-MB-231 breast, with OVCAR-4 ovarian, with OVCAR-8 ovarian and in the experiment with HCT-116 colon was greater than 100 µM throughout. Moreover, the TGI in the experiment with A549 NSCLC, in the experiment on U251 CNS, in the experiment with K-562 leukemia, in the experiment with HL-60(TB) leukemia, in the experiment with NCI/ADR-RES ovarian and with SK-MEL-5 melanoma was greater than 100 µM in each case. In the experiment on M14 melanoma, this compound registered a TGI greater than 100 µM.

For the compound `CC1(C=O)CC(CCc2ccccc2)NC1Cc1ccc(O)cc1` (centres undefined), the TGI with ACHN renal is 28.6 µM; in the experiment with SF-268 CNS, 33.1 µM; in the experiment with UACC-257 melanoma, 29.6 µM; with MCF7 breast, 27.1 µM; in the experiment with SR leukemia, 33.9 µM; in the experiment on SF-539 CNS, 29.4 µM. Further, the TGI was determined as 40.9 µM with T-47D breast; 31.8 µM with NCI-H460 lung; 26.5 µM in the experiment with MDA-MB-231 breast; 29 µM in the experiment with OVCAR-4 ovarian; 43.7 µM in the experiment with OVCAR-8 ovarian; 29.6 µM in the experiment with HCT-116 colon. In addition, the TGI in the experiment on A549 NSCLC amounted to 30.1 µM; in the experiment with U251 CNS, 26.5 µM; with K-562 leukemia, 48.1 µM; in the experiment on HL-60(TB) leukemia it was 31.8 µM; with NCI/ADR-RES ovarian, 37.6 µM; with SK-MEL-5 melanoma it was 29.4 µM. In the experiment on M14 melanoma, this compound showed a TGI of 29.7 µM.

For `COc1cccc(CCn2c(N)c(-c3cc(Cl)cc(Cl)c3)c3ccc([N+](=O)[O-])cc3c2=O)c1`, the TGI is 22.5 µM in the experiment on ACHN renal; greater than 100 µM with SF-268 CNS; 24.4 µM in the experiment on UACC-257 melanoma; 89.2 µM in the experiment on MCF7 breast; greater than 64.8 µM in the experiment on SR leukemia; greater than 100 µM in the experiment with SF-539 CNS. Further, the TGI with T-47D breast is greater than 24.8 µM; in the experiment on NCI-H460 lung it was greater than 30.8 µM; with MDA-MB-231 breast it was 61.1 µM; in the experiment on OVCAR-4 ovarian, greater than 100 µM; in the experiment on OVCAR-8 ovarian, greater than 100 µM; in the experiment on HCT-116 colon, 12.7 µM. Moreover, the TGI in the experiment with A549 NSCLC was greater than 100 µM; in the experiment on U251 CNS, greater than 49.3 µM; with K-562 leukemia it was 4.28 µM; in the experiment with HL-60(TB) leukemia, 5.37 µM; in the experiment on NCI/ADR-RES ovarian it was greater than 55 µM; in the experiment with SK-MEL-5 melanoma, 9.07 µM. This compound also yielded a TGI in the experiment on M14 melanoma greater than 100 µM.

In the case of `COc1ccc2nc3cccc([N+](=O)[O-])c3c(NCCC(=O)O)c2c1`, the TGI with ACHN renal, with SF-268 CNS, in the experiment on UACC-257 melanoma, with MCF7 breast, in the experiment with SR leukemia and in the experiment on SF-539 CNS was greater than 10 µM in each case. For the same compound, the TGI with T-47D breast, in the experiment on NCI-H460 lung, in the experiment on MDA-MB-231 breast, in the experiment with OVCAR-4 ovarian, with OVCAR-8 ovarian and in the experiment with HCT-116 colon was greater than 10 µM in each case. For the same compound, the TGI in the experiment on A549 NSCLC, in the experiment on U251 CNS, in the experiment on K-562 leukemia, with HL-60(TB) leukemia, in the experiment with NCI/ADR-RES ovarian and with SK-MEL-5 melanoma was greater than 10 µM throughout. Besides, the TGI with M14 melanoma was greater than 10 µM.

These data come from PubChem BioAssay (NCI).
